Laboratory results from patent US10034861B2 (priority 2016, dated 2018).
Where two headings read alike, the source gives them in different places.

Experiments:
PDE1A = PDE1A (Homo sapiens (Human), UniProt P54750); assay: biochemical; assay type: biochemical; conditions: 15 nM tritium labelled cAMP, 1 hr at room temperature, SPA beads
Text: (§1) Table 1 lists the IC50 value for inhibition of PDE1 by the compounds of the invention. […] PDE1 assays are described in the Experimental Section.

PDE1B = PDE1B (Homo sapiens (Human), UniProt Q01064); assay: PDE1 inhibition assay (PDE1B); assay type: biochemical; conditions: 15 nM tritium labelled cAMP, 1 hr at room temperature, SPA beads
PDE1B, sequence (Q01064 whole entry): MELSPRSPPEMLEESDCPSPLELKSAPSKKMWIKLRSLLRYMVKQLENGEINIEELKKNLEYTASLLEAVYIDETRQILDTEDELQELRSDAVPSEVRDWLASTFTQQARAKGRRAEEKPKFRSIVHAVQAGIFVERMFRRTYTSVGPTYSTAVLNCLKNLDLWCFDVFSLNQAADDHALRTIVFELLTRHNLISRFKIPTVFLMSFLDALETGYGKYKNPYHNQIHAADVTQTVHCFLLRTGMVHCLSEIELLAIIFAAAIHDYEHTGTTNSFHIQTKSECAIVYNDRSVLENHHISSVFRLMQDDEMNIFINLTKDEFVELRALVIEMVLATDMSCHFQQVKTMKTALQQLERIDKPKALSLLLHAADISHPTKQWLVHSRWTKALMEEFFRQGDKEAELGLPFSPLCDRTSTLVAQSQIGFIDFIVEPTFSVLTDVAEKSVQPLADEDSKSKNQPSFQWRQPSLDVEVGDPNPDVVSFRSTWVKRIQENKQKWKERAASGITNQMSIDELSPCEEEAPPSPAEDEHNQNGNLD
Text: as §1

PDE1C [1] = target: T1, PDE1C (Homo sapiens (Human), UniProt Q14123); assay: biochemical; conditions: read-out: PDE1C, inhibition at 10 μM
T1 sequence (Q14123 whole entry): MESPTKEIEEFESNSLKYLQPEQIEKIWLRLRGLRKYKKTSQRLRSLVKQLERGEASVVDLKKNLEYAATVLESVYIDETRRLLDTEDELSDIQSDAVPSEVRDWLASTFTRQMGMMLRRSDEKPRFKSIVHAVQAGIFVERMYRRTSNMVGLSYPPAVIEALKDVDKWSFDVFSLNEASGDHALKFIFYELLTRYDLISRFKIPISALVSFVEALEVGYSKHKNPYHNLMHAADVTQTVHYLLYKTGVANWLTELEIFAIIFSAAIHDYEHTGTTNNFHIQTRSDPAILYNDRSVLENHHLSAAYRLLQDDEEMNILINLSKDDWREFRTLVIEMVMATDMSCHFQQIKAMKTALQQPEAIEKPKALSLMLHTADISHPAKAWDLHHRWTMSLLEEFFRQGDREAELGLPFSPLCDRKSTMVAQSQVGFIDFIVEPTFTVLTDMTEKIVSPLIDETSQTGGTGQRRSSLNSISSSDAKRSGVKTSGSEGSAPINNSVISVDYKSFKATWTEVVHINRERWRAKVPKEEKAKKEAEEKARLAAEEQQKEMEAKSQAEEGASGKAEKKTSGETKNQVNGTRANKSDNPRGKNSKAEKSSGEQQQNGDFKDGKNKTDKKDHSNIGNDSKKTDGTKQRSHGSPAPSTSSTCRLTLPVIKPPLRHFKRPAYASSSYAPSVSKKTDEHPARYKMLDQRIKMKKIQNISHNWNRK

PDE1C [2] = target: T1, PDE1C; assay: biochemical; assay type: biochemical
Text: as §1

[3] = 15 nM tritium labelled cAMP, 1 hr at room temperature, SPA beads

PDE1A, sequence (P54750 whole entry): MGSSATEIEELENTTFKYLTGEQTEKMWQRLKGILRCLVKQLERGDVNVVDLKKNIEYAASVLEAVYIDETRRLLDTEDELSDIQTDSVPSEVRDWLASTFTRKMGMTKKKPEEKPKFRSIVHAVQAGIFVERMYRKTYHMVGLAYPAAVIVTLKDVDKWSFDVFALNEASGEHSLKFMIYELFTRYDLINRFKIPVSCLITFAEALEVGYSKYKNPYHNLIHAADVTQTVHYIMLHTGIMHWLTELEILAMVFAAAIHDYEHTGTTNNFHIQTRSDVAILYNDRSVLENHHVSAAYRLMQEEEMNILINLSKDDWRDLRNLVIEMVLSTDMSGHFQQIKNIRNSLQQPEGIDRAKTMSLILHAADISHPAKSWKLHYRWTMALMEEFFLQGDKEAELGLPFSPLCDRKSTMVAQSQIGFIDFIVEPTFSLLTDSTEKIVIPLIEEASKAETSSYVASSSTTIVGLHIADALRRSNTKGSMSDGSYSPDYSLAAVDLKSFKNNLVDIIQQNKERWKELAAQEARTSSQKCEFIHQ

## CCOc1ncccc1-c1cc(NC(C)c2cnn(C)c2)c2c(cnn2C)n1 (racemic) [Example 15, 5-(2-ethoxypyridin-3-yl)-1-methyl-N-(1-(1-methyl-1H-pyrazol-4-yl)ethyl)-1H-pyrazolo[4,3-b]pyridin-7-amine]
PDE1A
  IC50: 820 nM
PDE1B; PDE1B, IC50 (nM)
  IC50: 200 nM
PDE1C [1]
  inhibition at 10 µM: 36%

## CCOc1ncccc1-c1cc(NCc2cccnc2C(F)(F)F)c2c(n1)c(C)nn2C(C)C [Example 77, 5-(2-ethoxy-3-pyridyl)-1-isopropyl-3-methyl-N-[[2-(trifluoromethyl)-3-pyridyl]methyl]pyrazolo[4,3-b]pyridin-7-amine]
PDE1A
  IC50: 21 nM
PDE1C [2]; [3]
  IC50: 64 nM
PDE1B; read-out: PDE1B, IC50
  IC50: 0.22 nM

## CCOc1ncccc1-c1cc(NCc2cc[nH]n2)c2c(cnn2C(C)CC)n1 (single isomer, unassigned) [Example 136, 5-(2-ethoxy-3-pyridyl)-1-[1-methylpropyl]-N-(1H-pyrazol-3-ylmethyl)pyrazolo[4,3-b]pyridin-7-amine]
PDE1A
  IC50: 62 nM
PDE1C [2]
  IC50: 100 nM
PDE1B; PDE1B, IC50 (nM)
  IC50: 3.2 nM

## Cc1nn(C(C)C)c2c(NCc3cnn(C)c3)cc(N3CCC3=O)nc12 [Example 152, 1-[1-isopropyl-3-methyl-7-[(1-methylpyrazol-4-yl)methylamino]pyrazolo[4,3-b]pyridin-5-yl]azetidin-2-one]
PDE1A
  IC50: 48 nM
PDE1C [2]; [3]
  IC50: 61 nM
PDE1B; read-out: PDE1B, IC50
  IC50: 32 nM
